Here are results for 1 molecule from patent US9499492B2, “4-(ortho)-fluorophenyl-5-fluoropyrimidin-2-yl amines containing a sulfoximine group” (BAYER PHARMA AKTIENGESELLSCHAFT, priority 2012, dated 2016).

As a reminder, the IC50 is the point on the concentration scale where inhibition reaches its midpoint.

Type in all cases: biochemical
Assay [1] has as its target human carbonic anhydrase-1 (Homo sapiens (Human), UniProt P00915). Description: Carbonic anhydrase assay, carbonic anhydrase-1 (Method 4). The conditions noted are these: read-out: Inhibition of Carbonic anhydrase-1 IC50. The procedure: (§1) 4. Carbonic Anhydrase Assay
(§2) 2 μL of the test compounds, dissolved in DMSO (100-fold final concentration), in a concentration range of 0.03-10 μmol/L (final), was pipetted as quadruplicates into the wells of a 96-hole microtiter plate. Wells that contained the solvent without test compounds were used as reference values (1. Wells without carbonic anhydrase for correction of the non-enzymatic hydrolysis of the substrate, and 2. Wells with carbonic anhydrase for determining the activity of the non-inhibited enzyme).
(§3) 188 μL of assay buffer (10 mmol/L of Tris/HCl, pH 7.4, 80 mmol/L of NaCl), with or without 3 units/well of carbonic anhydrase-1 [=human carbonic anhydrase-1 (Sigma, #C4396)] in order to determine carbonic anhydrase-1 inhibition or 3 units/well of carbonic anhydrase-2 [=human carbonic anhydrase-2 (Sigma, #C6165)] for measuring carbonic anhydrase-2 inhibition, was pipetted into the wells of the microtiter plate.

In assay [2] the target is human carbonic anhydrase-2 (Homo sapiens (Human), UniProt P00918). The experiment in a line: Carbonic anhydrase assay, carbonic anhydrase-2 (Method 4). The conditions noted are these: read-out: Inhibition of Carbonic anhydrase-2 IC50. The procedure:
as §1
The principle of the assay is based on the hydrolysis of 4-nitrophenyl acetate by carbonic anhydrases (Pocker & Stone, Biochemistry, 1967, 6, 668), with subsequent photometric determination of the dye product 4-nitrophenolate at 400 nm by means of a 96-channel spectral photometer.
as §2, §3

For the next assay, the target named is CDK2/CycE (Homo sapiens (Human), UniProt P24941). Description: CDK2/CycE kinase assay (Method 2). The conditions noted are these: 10 μM ATP.

Chain of human carbonic anhydrase-1 (P00915 whole entry): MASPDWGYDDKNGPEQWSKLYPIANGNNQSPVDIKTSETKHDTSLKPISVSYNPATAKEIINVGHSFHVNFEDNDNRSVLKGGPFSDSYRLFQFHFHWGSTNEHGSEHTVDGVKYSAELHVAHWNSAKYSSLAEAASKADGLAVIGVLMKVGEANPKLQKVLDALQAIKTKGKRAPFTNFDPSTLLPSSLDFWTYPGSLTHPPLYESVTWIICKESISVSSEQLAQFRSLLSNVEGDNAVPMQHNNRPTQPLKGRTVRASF

With `CS(=O)(Cc1cc(Br)cc(Nc2ncc(F)c(-c3ccc(F)cc3F)n2)c1)=NC#N` (racemic) [Example 18, (rac)-[(3-Bromo-5-{[4-(2,4-difluorophenyl)-5-fluoropyrimidin-2-yl]amino}benzyl)(methyl)oxido-λ^6-sulfanylidene]cyanamide], the IC50 in assay [1] was over 10 µM; in assay [2], over 10 µM; against CDK2/CycE, 0.47 µM.
